Patent US20090176817A1, “Method of Treatment of Diarrhea-Predominant Irritable Bowel Syndrome in a Subject” (priority 2005, published 2009)

System: diarrhea-predominant IBS subjects
Assay: Study S241.3.006: weekly diary questions on adequate relief
Format: in vivo, human
Conditions: for Number of months a subject was a responder: One month (Abdominal pain/discomfort) / Number of months a subject was a responder: One month (Abnormal bowel habits) / Number of months a subject was a responder: One month (IBS symptoms) / Number of months a subject was a responder: Three months (Abdominal pain/discomfort) / Number of months a subject was a responder: Three months (Abnormal bowel habits) / Number of months a subject was a responder: Three months (IBS symptoms) / Number of months a subject was a responder: Two months (Abdominal pain/discomfort) / Number of months a subject was a responder: Two months (Abnormal bowel habits) / Number of months a subject was a responder: Two months (IBS symptoms) / Number of months a subject was a responder: Zero months (Abdominal pain/discomfort) / Number of months a subject was a responder: Zero months (Abnormal bowel habits) / Number of months a subject was a responder: Zero months (IBS symptoms) / Overall responder rate, adequate relief of IBS symptoms / Overall responder rate, adequate relief of abdominal pain/discomfort / Overall responder rate, adequate relief of abnormal bowel habits: three-month treatment period; for Number of months a subject was a responder: One month (Abdominal pain/discomfort) / Number of months a subject was a responder: One month (Abnormal bowel habits) / Number of months a subject was a responder: One month (IBS symptoms) / Number of months a subject was a responder: Three months (Abdominal pain/discomfort) / Number of months a subject was a responder: Three months (Abnormal bowel habits) / Number of months a subject was a responder: Three months (IBS symptoms) / Number of months a subject was a responder: Two months (Abdominal pain/discomfort) / Number of months a subject was a responder: Two months (Abnormal bowel habits) / Number of months a subject was a responder: Two months (IBS symptoms) / Number of months a subject was a responder: Zero months (Abdominal pain/discomfort) / Number of months a subject was a responder: Zero months (Abnormal bowel habits) / Number of months a subject was a responder: Zero months (IBS symptoms): monthly LOCF
Experimental: The study was conducted in 129 study centers in the United States. At total of 2080 subjects consented to participate, and 711 subjects were randomized. A total of 692 subjects were analyzed for efficacy and 701 subjects were analyzed for safety. Diagnosis and main criteria for inclusion were IBS subjects satisfying the Rome I criteria (1992); the diarrhea predominant sub-population of the Rome II criteria; and a minimum abdominal pain/discomfort, stool frequency and consistency determined during the run-in period. Subjects were treated with cilansetron 2 mg tablets given orally TID or matching placebo tablets given orally TID for 12 weeks double-blind treatment.
The primary efficacy parameter was the number of months that a subject was a responder for IBS symptoms (abdominal pain, abdominal discomfort, abnormal bowel habits) over the 12-week treatment period. A responder for a month (monthly responder) was defined as a subject who answered the weekly question with “yes” at least twice for that month.
Studies S24 1.3.OO6, S24 1.3.0 1 1, and S24 1.3.009 used the following efficacy measurements: • The subjects answered the following three questions with “yes” or “no” using a phone diary at the end of each week: • a) During the last week, did you experience adequate relief of your IBS symptoms, such as abdominal pain, abdominal discomfort, abnormal bowel habits? • b) During the last week, did you experience adequate relief of your abdominal pain and/or discomfort? • c) During the last week, did you experience adequate relief of your abnormal bowel habits? • The subjects rated the following symptoms using the phone diary at the end of each day: • abdominal pain/discomfort (five-point scale); • stool consistency (seven-point Bristol Stool Scale); • stool frequency (number of bowel movements each day); • urgency (five-point scale); • straining (yes or no); • feeling of incomplete defecation (yes or no); • bloating or feeling of abdominal distension (five-point scale). • In Studies S241 A006 and S241.3.009, subjects completed the IBS-QOL Survey at Baseline (Day 1) and at the end of treatment. In Study S24 1.3.0 1 1, subjects completed the IBS-QOL Survey at Baseline (Day 1), at the end of the three-month treatment period, and at the end of rerandomized treatment.
In all three pivotal efficacy studies, the primary and main secondary efficacy parameters were based on the weekly diary questions on adequate relief and included the following: • 1. Number of months (one month equals four weeks) that a subject was a responder for the weekly diary questions on adequate relief. A responder for a month (monthly responder) was defined as a subject who answered the weekly question with “yes” at least twice for that month. For Studies S241.3.006 and S241.3.011, the primary efficacy parameter was the number of months that a subject was a responder for IBS symptoms during the 12-week treatment period. The two main secondary efficacy parameters were the number of months that a subject was a responder for abdominal pain/discomfort and abnormal bowel habits during the 12-week treatment period. For Study S241.3.009, the number of months that a subject was a responder for the weekly diary questions on adequate relief during Months 1 to 3 (the first 12 weeks) and Months 1 to 6 (24-week) was an additional key secondary efficacy parameter. • 2. Overall responder rate for the weekly diary questions on adequate relief. A responder was defined as a subject who answered the weekly question with “yes” for at least half of the answers available with a minimum of four weeks treatment duration. If a subject had less than four weeks treatment duration, the subject was considered a non-responder. The overall responder rate was the percentage of responders within a treatment group. For Study S241.3.009, the primary efficacy parameter was the overall responder rate for IBS symptoms during the 26-week treatment period. […]

[1] = Duration of IBS: ≦24 months, ITT, 2 mg TID
[2] = Female subjects, observed case, ITT, 2 mg TID
[3] = Male subjects, observed case, ITT, 2 mg TID

SMILES: Cc1nccn1C[C@H]1CCc2c(c3cccc4c3n2CCC4)C1=O [Cilansetron, (R)-(−)-4,5,6,8,9,10-hexahydro-10-[(2-methyl-1H-imidazol-1-yl)methyl]-11H-pyrido-[3,2,1-jk]-carbazol-11-one]
- Number of subjects who were responders during the three-month treatment period: Adequate relief of abnormal bowel habits (Duration of IBS: ≦24 months, 2 mg TID, observed case, ITT): 27 (53) n (%)
- Number of months a subject was a responder: One month (Abdominal pain/discomfort) [1]: 7 (14) n (%)
- Number of months a subject was a responder: One month (Abnormal bowel habits) [1]: 4 (8) n (%)
- Number of months a subject was a responder: One month (IBS symptoms) [1]: 5 (10) n (%)
- Number of months a subject was a responder: Three months (Abdominal pain/discomfort) [1]: 25 (49) n (%)
- Number of months a subject was a responder: Three months (Abnormal bowel habits) [1]: 22 (43) n (%)
- Number of months a subject was a responder: Three months (IBS symptoms) [1]: 19 (37) n (%)
- Number of months a subject was a responder: Two months (Abdominal pain/discomfort) [1]: 4 (8) n (%)
- Number of months a subject was a responder: Two months (Abnormal bowel habits) [1]: 7 (14) n (%)
- Number of months a subject was a responder: Two months (IBS symptoms) [1]: 8 (16) n (%)
- Number of months a subject was a responder: Zero months (Abdominal pain/discomfort) [1]: 15 (29) n (%)
- Number of months a subject was a responder: Zero months (Abnormal bowel habits) [1]: 18 (35) n (%)
- Number of months a subject was a responder: Zero months (IBS symptoms) [1]: 19 (37) n (%)
- Number of months a subject was a responder: One month (Abdominal pain/discomfort) (Female subjects, ITT, 2 mg TID): 32 (13) n (%)
- Number of months a subject was a responder: One month (Abnormal bowel habits) (Female subjects, ITT, 2 mg TID): 27 (11) n (%)
- Number of months a subject was a responder: One month (IBS symptoms) (Female subjects, ITT, 2 mg TID): 36 (15) n (%)
- Number of months a subject was a responder: Three months (Abdominal pain/discomfort) (Female subjects, ITT, 2 mg TID): 103 (42) n (%)
- Number of months a subject was a responder: Three months (Abnormal bowel habits) (Female subjects, ITT, 2 mg TID): 104 (43) n (%)
- Number of months a subject was a responder: Three months (IBS symptoms) (Female subjects, ITT, 2 mg TID): 94 (39) n (%)
- Number of months a subject was a responder: Two months (Abdominal pain/discomfort) (Female subjects, ITT, 2 mg TID): 38 (16) n (%)
- Number of months a subject was a responder: Two months (Abnormal bowel habits) (Female subjects, ITT, 2 mg TID): 37 (15) n (%)
- Number of months a subject was a responder: Two months (IBS symptoms) (Female subjects, ITT, 2 mg TID): 38 (16) n (%)
- Number of months a subject was a responder: Zero months (Abdominal pain/discomfort) (Female subjects, ITT, 2 mg TID): 70 (29) n (%)
- Number of months a subject was a responder: Zero months (Abnormal bowel habits) (Female subjects, ITT, 2 mg TID): 75 (31) n (%)
- Number of months a subject was a responder: Zero months (IBS symptoms) (Female subjects, ITT, 2 mg TID): 75 (31) n (%)
- Overall responder rate, adequate relief of IBS symptoms [2]: 127 (52) n (%)
- Overall responder rate, adequate relief of abdominal pain/discomfort [2]: 134 (55) n (%)
- Overall responder rate, adequate relief of abnormal bowel habits [2]: 135 (56) n (%)
- Number of months a subject was a responder: One month (Abdominal pain/discomfort) (Male subjects, ITT, 2 mg TID): 10 (10) n (%)
- Number of months a subject was a responder: One month (Abnormal bowel habits) (Male subjects, ITT, 2 mg TID): 13 (13) n (%)
- Number of months a subject was a responder: One month (IBS symptoms) (Male subjects, ITT, 2 mg TID): 9 (9) n (%)
- Number of months a subject was a responder: Three months (Abdominal pain/discomfort) (Male subjects, ITT, 2 mg TID): 36 (36) n (%)
- Number of months a subject was a responder: Three months (Abnormal bowel habits) (Male subjects, ITT, 2 mg TID): 25 (25) n (%)
- Number of months a subject was a responder: Three months (IBS symptoms) (Male subjects, ITT, 2 mg TID): 25 (25) n (%)
- Number of months a subject was a responder: Two months (Abdominal pain/discomfort) (Male subjects, ITT, 2 mg TID): 9 (9) n (%)
- Number of months a subject was a responder: Two months (Abnormal bowel habits) (Male subjects, ITT, 2 mg TID): 15 (15) n (%)
- Number of months a subject was a responder: Two months (IBS symptoms) (Male subjects, ITT, 2 mg TID): 15 (15) n (%)
- Number of months a subject was a responder: Zero months (Abdominal pain/discomfort) (Male subjects, ITT, 2 mg TID): 46 (46) n (%)
- Number of months a subject was a responder: Zero months (Abnormal bowel habits) (Male subjects, ITT, 2 mg TID): 48 (48) n (%)
- Number of months a subject was a responder: Zero months (IBS symptoms) (Male subjects, ITT, 2 mg TID): 52 (51) n (%)
- Overall responder rate, adequate relief of IBS symptoms [3]: 41 (41) n (%)
- Overall responder rate, adequate relief of abdominal pain/discomfort [3]: 45 (45) n (%)
- Overall responder rate, adequate relief of abnormal bowel habits [3]: 39 (39) n (%)
- Overall responder rate, IBS symptoms (females): 52%
- Overall responder rate, abdominal pain/discomfort (females): 55%
- Overall responder rate, abnormal bowel habits (females): 56%
- Overall responder rate, IBS symptoms (males): 41%
- Overall responder rate, abdominal pain/discomfort (males): 45%
- Overall responder rate, abnormal bowel habits (males): 39%
- Overall responder rate, abdominal pain/discomfort (non-Caucasians): 48%
